Data from patent US9499493B2, “2,4-pyrimidinediamine compounds and their uses” (Rigel Pharmaceuticals, Inc., priority 2002, dated 2016).
pIC50: −log10 of the molar value.

Columns and labels:
[1] = tested on: bone marrow derived mast cells (BMMC); assay: BMMC high cell density IgE activation: histamine; assay type: cell-based, mouse; conditions: anti-IgE, second part of TABLE 1
Outline: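 IgE-sensitized BMMC (1-3×10^6 cells/ml, MT buffer) were pretreated with compound for 1 h at 37 °C in 0.5% DMSO, then stimulated with DNP-BSA (6× stimulus, 60 ng/ml) for 1 h. Supernatant was taken, and cells were re-incubated 4–5 h in WEI-conditioned medium with compound. Mediators were quantified by ELISA.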

[2] = Pilot dose finding studies (oral); conditions: in vivo
[3] = tested on: CHMC cells; assay: Phosphorylation of proteins downstream of Syk / LYN kinase in the FcεRI cascade, activated CHMC cells; assay type: cell-based, human; conditions: varying concentrations, FIG. 10
[4] = biological target: Syk kinase (Homo sapiens (Human), UniProt P43405); assay: Isolated Syk kinase: phosphorylation of a peptide substrate or endogenous substrate (LAT)
[5] = tested on: cultured human mast cells (CHMC); assay: CHMC high cell density IgE activation: TNFalpha; assay type: cell-based; conditions: anti-IgE activation; read-out: CHMC high density TNF-alpha
Outline: (§1)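 IgE-sensitized CHMC at 1-2×10^6 cells/ml were pretreated with compound for 1 h at 37 °C (0.5% DMSO final), then anti-IgE-stimulated for 1 h and supernatant collected. Hexosaminidase was read with a fluorogenic substrate. Pellets were re-incubated 7 h with compound before supernatant ELISAs.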

[6] = Mouse model of allergic asthma (ovalbumin); assay type: in vivo; conditions: less stringent protocol; subcutaneously 70 mg/kg in 67% PEG400/33% citrate buffer, 30 minutes prior to challenge
Text: Mice are sensitized to ovalbumin (chicken protein) in the presence of an adjuvant (Alum) by the intraperitoneal route on day 0 and day 7. One week later, mice are challenged intranasally with ovalbumin on Days 14, 15 and 16 (more stringent model) or on Day 14 (less stringent model). This sensitization and challenge regimen leads to airway hyperresponsiveness and inflammation in the lungs, which are two dominant characteristics of human allergic asthma. In the mouse model, the in vivo airway responses are measured using a whole body plethysmograph which determines the PENH (enhanced Pause, Buxco Electronics). The PENH is a dimensionless value comprised of the peak inspiratory flow (PIF), peak expiratory flow (PEF), time of inspiration, time of expiration and relaxation time, and is considered a validated parameter of airway responsiveness. Responses to allergen challenge (OVA) are compared with animals challenged with saline only. Twenty-four hours after challenge, mice are exposed to increasing doses of methacholine (muscarinic receptor agonist) which results in smooth muscle contraction. […] In addition, a cellular infiltrate in the airway is observed in ovalbumin challenged mice when compared with the saline challenged mice. This cellular infiltrate is mainly characterized by eosinophils, but a smaller influx of neutrophils and mononuclear cells is also present.
The use of this model for the evaluation of small molecule inhibitors of mast cell degranulation has been validated is several ways. First, using mast cell deficient mice (W/W^v) it has been shown that the ovalbumin-induced responses are dependent upon the presence of mast cells.

[7] = tested on: IgE-induced degranulation of tissue mast cells; assay: Mouse model of passive cutaneous anaphylaxis (PCA); assay type: in vivo; conditions: for % Inhibition (PCA) / Plasma level: PO, 1.5% Avicel/water, pretreatment 15 min
Experimental: This model provides a direct measure of IgE-induced degranulation of tissue mast cells. In this model, IgE primed animals are exposed to an allergen challenge, and the change in permeability of dermal vasculature that results from histamine release from mast cells is measured by change in the amount of dye leakage into surrounding tissue. Inhibition of mediator release by compounds that modulate mast cell degranulation is easily measured by extracting the dye from the tissue.
In the PCA assay mice are passively sensitized by intradermal injection with anti-dinitrophenol (DNP) IgE antibodies (Day −1). At predetermined times animals are treated with the test agent (Day 0). The modulatory effect of the agent on cutaneous mast cell degranulation is measured following intravenous injection of DNP conjugated to human serum albumin (HSA-DNP), together with Evans blue dye. The resulting cross-linking of the IgE receptor and subsequent mast cell degranulation-induced increase in vascular permeability is determined by measuring the amount of dye extravasation into the tissue. Dye is extracted from the tissue by formamide, and the absorbance of this extract is read at 620 nm.

[8] = tested on: cultured human mast cells (CHMC); assay: CHMC high cell density IgE activation: hexos (hexosaminidase) release; assay type: cell-based; conditions: anti-IgE activation
Outline: as §1

[9] = tested on: cultured human mast cells (CHMC); assay: CHMC high cell density IgE activation: tryptase; assay type: cell-based; conditions: anti-IgE activation
Experimental: After sensitizing, cells are counted, pelleted (1000 rpm, 5-10 minutes), and resuspended at 1-2×10^6 cells/ml in MT buffer. Add 100 ul of cell suspension to each well and 100 ul of compound dilutions. The final vehicle concentration is 0.5% DMSO. Incubate at 37° C. (5% CO2) for 1 hour. After 1 hour of compound treatment, stimulate cells with 6× anti-IgE. Mix wells with the cells and allow plates to incubate at 37° C. (5% CO2) for one hour. After 1 hour incubation, pellet cells (10 minutes, 1000 RPM) and collect 200 ul per well of the supernatant, being careful not to disturb pellet. Place the supernatant plate on ice. During the 7-hour step (see next) perform tryptase assay on supernatant that had been diluted 1:500. Resuspend cell pellet in 240 ul of CM media containing 0.5% DMSO and corresponding concentration of compound. Incubate CHMC cells for 7 hours at 37° C. (5% CO2). After incubation, pellet cells (1000 RPM, 10 minutes) and collect 225 ul per well and place in −80° C. until ready to perform ELISAS. ELISAS are performed on appropriately diluted samples (determined empirically for each donor cell population so that the sample measurement falls within the standard curve) following the supplier's instructions.

[10] = increasing concentrations, FIG. 8

Structure (SMILES) | pIC50 [1] | multiple (7-day) doses not tolerated [2] [mg/kg/day] | phosphorylation of proteins downstream of Syk kinase [3] | mode of inhibition of Syk kinase ([4]; FIG. 9) | Syk kinase phosphorylation of a peptide substrate [4, 10] | Syk kinase phosphorylation of an endogenous substrate (LAT) [4, 10] | pIC50 [5] | ovalbumin-induced airway hyperresponsiveness and cellular influx [6] | % Inhibition (PCA) ([7]; 30 mg/kg) [%] | Plasma level ([7]; 30 mg/kg) [ng/mL] | % Inhibition (PCA) ([7]; 100 mg/kg) [%] | Plasma level ([7]; 100 mg/kg) [ng/mL] | % Inhibition (PCA) ([7]; 300 mg/kg) [%] | Plasma level ([7]; 300 mg/kg) [ng/mL] | circulating exposure levels at which active ([7]; mouse, in vivo) | FcεR-mediated vascular leakage with increasing doses (in words) ([7]; solution (67% PEG/33% citrate buffer) or aqueous suspension (1.5% Avicel)) | pIC50 [8] | pIC50 [9]
CNC(=O)COc1cccc(Nc2ncc(F)c(Nc3ccc4c(c3)NCCO4)n2)c1 [R921219, N4-(1,4-Benzoxazin-6-yl)-5-fluoro-N2-[3-(N-methylamino)carbonylmethyleneoxyphenyl]-2,4-pyrimidinediamine] | 7.24 | ≥ 200 | inhibit | ATP competitive | dose responsive inhibition | dose responsive inhibition | 6.72 | completely blocked | 25 | 400 | 68 | 4000 | 92 | 11000 | approximately 10 μg/ml | dose-dependent inhibition | – | –
CNC(=O)COc1cccc(Nc2ncc(F)c(Nc3cccc(O)c3)n2)c1 [R926508, 5-Fluoro-N4-(3-hydroxyphenyl)-N2-[3-(N-methylamino)carbonylmethyleneoxyphenyl]-2,4-pyrimidinediamine] | – | – | – | – | – | – | – | – | – | – | – | – | – | – | – | – | 6.77 | 6.36
